Literature values, collected in patent publication US7270977B2, “Polypeptides for identifying fungicidally active compounds” (priority 2001, dated 2007).
“Also recorded” adds a separate entry of the source.

How the values were obtained:
[1] = test system: C. albicans cells; settings: cited from earlier work; for effect on C. albicans: in words
[2] = biological target: recombinant IMPDH from Pneumocystis carinii (Pneumocystis carinii, UniProt Q12658); settings: recombinant P. carinii IMPDH; read-out: concentration resulting in 50% inhibition of the activity of the recombinant IMPDH; cited from earlier work
[3] = test system: Cryptococcus neoformans; settings: in words; cited from earlier work
[4] = test system: Candida guilliermondii; settings: in words; cited from earlier work
[5] = test system: Candida krusei; settings: in words; cited from earlier work
[6] = test system: Candida pseudotropicalis; settings: in words; cited from earlier work
[7] = test system: Hansenula anomala; settings: in words; cited from earlier work
[8] = test system: S. cerevisiae; settings: in words; cited from earlier work

Sequence of recombinant IMPDH from Pneumocystis carinii (Q12658 76-529): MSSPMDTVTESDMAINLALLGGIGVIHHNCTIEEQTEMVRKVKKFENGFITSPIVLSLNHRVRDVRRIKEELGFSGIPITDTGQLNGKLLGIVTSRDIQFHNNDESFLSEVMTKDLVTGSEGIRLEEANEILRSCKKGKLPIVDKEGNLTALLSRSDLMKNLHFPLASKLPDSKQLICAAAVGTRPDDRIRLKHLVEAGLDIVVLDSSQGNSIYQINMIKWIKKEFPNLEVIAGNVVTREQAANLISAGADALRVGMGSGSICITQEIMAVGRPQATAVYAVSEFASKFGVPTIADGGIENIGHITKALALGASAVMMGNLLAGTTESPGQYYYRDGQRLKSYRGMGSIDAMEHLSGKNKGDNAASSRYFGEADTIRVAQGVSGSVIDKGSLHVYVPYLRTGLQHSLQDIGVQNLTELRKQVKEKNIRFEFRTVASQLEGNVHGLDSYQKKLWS

SMILES | effect on C. albicans [1] | IC50 [2] [µM] | effect on growth in vitro [3] | effect on growth in vitro [4] | effect on growth in vitro [5] | effect on growth in vitro [6] | effect on growth in vitro [7] | effect on growth in vitro [8] | concentration inhibiting growth of C. albicans cells ([1]; wild-type cells) [µg/mL]
NC(=O)c1ncn([C@@H]2O[C@H](CO)[C@@H](O)[C@H]2O)c1O [mizoribine] | virtually ineffective |  |  |  |  |  |  |  | 
COc1c(C)c2c(c(O)c1C/C=C(\C)CCC(=O)O)C(=O)OC2 [mycophenolic acid] | inhibits in vitro the growth; also recorded: acts fungistatically | 25 | inhibits in vitro the growth | ineffective | ineffective | ineffective | ineffective | ineffective; also recorded: no effect | 1
